Experimental data taken from patent publication US20260049072A1, “HETEROCYCLIC COMPOUND FOR INDUCING DEGRADATION OF MUTANT KRAS PROTEIN” (Astellas Pharma Inc., priority 2022, published 2026).
Read-outs that look alike come from different tables or passages of the source.

Assays:
[1] = tested on: phosphorylation of ERK (Thr202/Tyr204); test: ERK phosphorylation inhibitory activity, cell ELISA, PA-TU-8902; type: cell-based; conditions: Homo sapiens, read-out: IC50 (ERK phosphorylation inhibition)
Method: Test Example 2: Evaluation of ERK Phosphorylation Inhibitory Activity on Human KRAS G12V Mutant-Positive Pancreatic Cancer Line PA-TU-8902
The ERK phosphorylation inhibitory activities of subject compounds were evaluated by measuring phosphorylation of the 202th threonine (Thr202) and the 204th tyrosine (Tyr204) of ERK located downstream of the KRAS signal by cell ELISA.
PA-TU-8902 cells were seeded at 36 µL/well on a 384-well plate (from Greiner bio-one) to give 5.0×10^3 cells per well. The cell culture conditions were the same conditions as in Test Example 1-1.
The next day, the subject compounds (9 points having final concentrations in the range of 3 μM to 0.3 nM), trametinib (MEK inhibitor) of a final concentration of 300 nM as a positive control and DMSO, which was the solvent for the subject compounds, as a negative control were diluted 100-fold with a fresh medium and were each added at 4 μL per well, followed by culturing for 24 hours. After culturing, a 30% glyoxal solution (40% glyoxal [from Nacalai Tesque] was diluted with PBS) was quickly added at 30 μL per well, and the plate was allowed to stand for an hour and 30 minutes at room temperature to thus immobilize the cells. Then, the plate was centrifuged (110×g, seven seconds, hereinafter centrifugation was performed under the same conditions unless otherwise specified) to remove the supernatant, and 0.1% Triton X-100-containing PBS was added at 20 μL per well. After allowing the plate to stand for 10 minutes at room temperature, the supernatant was removed by centrifugation, and the same operation was further repeated. Next, 0.5% SDS-containing PBS was added at 20 μL per well. The plate was allowed to stand at room temperature for 30 minutes and was then centrifuged to remove the supernatant. Subsequently, a blocking solution (Intercept Blocking Buffer) was added at 20 μL per well, and the plate was allowed to stand for an hour at room temperature. The supernatant was removed by centrifugation, and an ERK (Thr202/Tyr204) phosphorylation antibody (Phospho-p44/42 MAPK (Erk 1/2) (Thr202/Tyr204) (D13.14.4E) XP Rabbit mAb; from Cell Signaling Technology) diluted 2,500-fold with the blocking solution was added at 15 μL per well as a primary antibody. The plate was allowed to stand at 4° C. overnight.
The next day, the plate was centrifuged to remove the supernatant, and 0.05% Tween-20-containing PBS (from Thermo Scientific; 20×PBS Tween-20 was diluted 20-fold with ion exchange water and used) was added at 50 μL per well. The supernatant was removed by centrifugation to thus wash each well. The washing was performed three times in total. After washing, an anti-rabbit IgG antibody diluted 1,000-fold with the blocking solution was added at 15 μL per well as a secondary antibody, and the plate was allowed to stand for an hour at room temperature. The plate was centrifuged to remove the supernatant, and each well was washed three times with 0.05% Tween-20-containing PBS in the same manner as after the primary antibody reaction. Centrifugation after the third washing was performed at 171×g for 17 seconds. After removing the supernatant, the plate was dried as it was with air at room temperature for three hours or more, and the 800-nm fluorescent signals were measured with Aerius.
With the signaling value at the time of addition of DMSO taken as 0% inhibition and with the signaling value at the time of addition of 300 nM trametinib taken as 100% inhibition, the 50% inhibition values (IC50) were calculated by Sigmoid-Emax model nonlinear regression analysis.

PA-TU-8902 xenograft = test: Anti-tumor activity in PA-TU-8902 xenograft mouse; type: in vivo; conditions: 30 mg/kg, tail vein, twice a week for two weeks, male nude mice
Method: (§1) Test Example 4: Evaluation of Anti-Tumor Activity in Human KRAS G12V Mutant-Positive Pancreatic Cancer Line PA-TU-8902 or Human KRAS G12D Mutant-Positive Pancreatic Cancer Line PK-59 Xenograft Mouse
(§2) PA-TU-8902 cells or PK-59 cells (RIKEN BRC, RCB1901) were cultured using DMEM medium or RPMI-1640 medium containing 10% fetal bovine serum, respectively, in the presence of 5% CO2 at 37° C. The PA-TU-8902 cells or the PK-59 cells were collected and suspended in PBS, and two equivalents of VitroGel Hydrogel Matrix (from TheWell Bioscience) was added. A cell suspension prepared at 1.0-2.0×10^7 cells/mL was subcutaneously inoculated in a volume of 100 μL in 4- to 6-week-old male nude mice (BALB/c-nu (nu/nu), from The Jackson Laboratory Japan, Inc.). After about two weeks of the inoculation, the mice were divided into groups so that all the groups had approximately the same tumor volume and body weight, and administration of a subject compound was started on the next day. The test was conducted for five mice for each of a solvent group and a subject compound administration group. The solvent used was a solvent containing ethanol (from FUJIFILM Wako), an aqueous (2-hydroxypropyl)-β-cyclodextrin (HP-PCD) solution (from ROQUETTE), HCO-40 (from Nikko Chemicals Co., Ltd.) dissolved in a 5% glucose solution (from Otsuka Pharmaceutical) at a ratio of 4%, 0.5%, and 9%, respectively. The compound was dissolved using the solvent. The subject compound dissolved in the solvent or the solvent was administered into tail vein. The administration was performed once or twice a week for two weeks. The tumor size and the body weight were measured twice a week. The tumor volume was calculated by using the following formula.
(§3) [Tumor volume (mm^3)]=[Major axis of tumor (mm)]×[Minor axis of tumor (mm)]^2×0.5
(§4) The tumor growth inhibition (%) by the subject compound was calculated with the tumor volume of the subject compound administration group on the previous day of the start of the administration taken as 100% inhibition and the tumor volume of the solvent group of the day of the final measurement taken as 0% inhibition.

PK-59 xenograft = test: Anti-tumor activity in PK-59 xenograft mouse; type: in vivo; conditions: 10 mg/kg, tail vein, once a week for two weeks, male nude mice
Method: as §1, §2, §3, §4

[2] = PaTu 8902, PA-TU-8902 cells, 24 hours, 100% = 300 nM trametinib

SMILES	IC50 [1, 2]	Anti-tumor activity at final measurement (PA-TU-8902 xenograft mouse), tumor growth inhibition (PA-TU-8902 xenograft)	Anti-tumor activity at final measurement (PK-59 xenograft mouse), tumor growth inhibition (PK-59 xenograft)	IC50 ([1]; PaTu 8902, 24 h)
CO[C@@H](C)COc1nc(OC2CN(C(=O)NCCN(C)C)C2)c2cc(C3CC3)c(-c3c(C)c(F)cc4[nH]ncc34)c(OCc3ccc(C(=O)N[C@H](C(=O)N4C[C@H](O)C[C@H]4C(=O)N[C@@H](CO)c4ccc(-c5scnc5C)cc4)C(C)C)cc3)c2n1 [Example 40, N-{4-[({(7M)-6-cyclopropyl-4-[(1-{[2-(dimethylamino)ethyl]carbamoyl}azetidin-3-yl)oxy]-7-(6-fluoro-5-methyl-1H-indazol-4-yl)-2-[(2S)-2-methoxypropoxy]quinazolin-8-yl}oxy)methyl]benzoyl}-L-valyl-(4R)-4-hydroxy-N-{(1R)-2-hydroxy-1-[4-(4-methyl-1,3-thiazol-5-yl)phenyl]ethyl}-L-prolinamide]	–	–	–	53 nM
CO[C@@H](C)COc1cc(OC2CN(C(=O)CCCN(C)C)C2)c2cc(C3CC3)c(-c3c(C)c(F)cc4[nH]ncc34)c(OCc3ccc(-c4cn([C@H](C(=O)N5C[C@H](O)C[C@H]5C(=O)N[C@@H](CO)c5ccc(-n6cncn6)cc5)C(C)C)nn4)cc3)c2n1 (atropisomer, axis not shown; (M)) [Example 41, (4R)-1-[(2S)-2-(4-{4-[({(7M)-6-cyclopropyl-4-({1-[4-(dimethylamino)butanoyl]azetidin-3-yl}oxy)-7-(6-fluoro-5-methyl-1H-indazol-4-yl)-2-[(2S)-2-methoxypropoxy]quinolin-8-yl}oxy)methyl]phenyl}-1H-1,2,3-triazol-1-yl)-3-methylbutanoyl]-4-hydroxy-N-{(1R)-2-hydroxy-1-[4-(1H-1,2,4-triazol-1-yl)phenyl]ethyl}-L-prolinamide]	24 nM	–	–	–
CO[C@@H](C)COc1nc(N(C)[C@H]2CCN(C(=O)NCCN(C)C)C2)c2cc(C3CC3)c(-c3c(C)c(F)cc4[nH]ncc34)c(OCc3ccc(-c4cn([C@H](C(=O)N5C[C@H](O)C[C@H]5C(=O)N[C@@H](CO)c5ccc(-c6scnc6C)cc5)C(C)C)nn4)cc3)c2n1 (atropisomer, axis not shown) [Example 19]	31 nM	–	–	–
CO[C@@H](C)COc1nc(N[C@H]2C[C@H](OCCN(C)C)C2)c2cc(C3CC3)c(-c3c(C)c(F)cc4[nH]ncc34)c(OCc3ccc(-c4cn([C@H](C(=O)N5C[C@H](O)C[C@H]5C(=O)N[C@@H](CO)c5ccc(-c6scnc6C)cc5)C(C)C)nn4)cc3)c2n1 (atropisomer, axis not shown) [Example 23]	107 nM	–	–	–

More lines, main results first:

IC50 [1, 2]	SMILES	Anti-tumor activity at final measurement (PA-TU-8902 xenograft mouse), tumor growth inhibition (PA-TU-8902 xenograft)	Anti-tumor activity at final measurement (PK-59 xenograft mouse), tumor growth inhibition (PK-59 xenograft)	IC50 ([1]; PaTu 8902, 24 h)
19 nM	CO[C@@H](C)COc1nc(NC2CN(C(=O)O[C@H]3C[C@@H](N(C)C)C3)C2)c2cc(C3CC3)c(-c3c(C)c(F)cc4[nH]ncc34)c(OCc3ccc(-c4cn([C@H](C(=O)N5C[C@H](O)C[C@H]5C(=O)N[C@@H](CO)c5ccc(-c6ocnc6C)cc5)C(C)C)nn4)cc3)c2n1 (atropisomer, axis not shown; (M)) [Example 1, (1s,3R)-3-(dimethylamino)cyclobutyl 3-({(7M)-6-cyclopropyl-7-(6-fluoro-5-methyl-1H-indazol-4-yl)-8-{[4-(1-{(2S)-1-[(2S,4R)-4-hydroxy-2-({(1R)-2-hydroxy-1-[4-(4-methyl-1,3-oxazol-5-yl)phenyl]ethyl}carbamoyl)pyrrolidin-1-yl]-3-methyl-1-oxobutan-2-yl}-1H-1,2,3-triazol-4-yl)phenyl]methoxy}-2-[(2S)-2-methoxypropoxy]quinazolin-4-yl}amino)azetidine-1-carboxylate]	69% inhibition	68% inhibition	–
8 nM	CO[C@@H](C)COc1cc(OC2CN(C(=O)N3CC(CN(C)C)C3)C2)c2cc(C3CC3)c(-c3c(C)c(F)cc4[nH]ncc34)c(OCc3ccc(-c4cn([C@H](C(=O)N5C[C@H](O)C[C@H]5C(=O)N[C@@H](CO)c5ccc(-n6cncn6)cc5)C(C)C)nn4)cc3)c2n1 (atropisomer, axis not shown; (M)) [Example 5, (4R)-1-[(2S)-2-(4-{4-[({(7M)-6-cyclopropyl-4-[(1-{3-[(dimethylamino)methyl]azetidine-1-carbonyl}azetidin-3-yl)oxy]-7-(6-fluoro-5-methyl-1H-indazol-4-yl)-2-[(2S)-2-methoxypropoxy]quinolin-8-yl}oxy)methyl]phenyl}-1H-1,2,3-triazol-1-yl)-3-methylbutanoyl]-4-hydroxy-N-{(1R)-2-hydroxy-1-[4-(1H-1,2,4-triazol-1-yl)phenyl]ethyl}-L-prolinamide]	56% inhibition	92% inhibition	–
9 nM	CO[C@@H](C)COc1cc(OC2CN(C(=O)O[C@H]3C[C@@H](N(C)C)C3)C2)c2cc(C3CC3)c(-c3c(C)c(F)cc4[nH]ncc34)c(OCc3ccc(-c4cn([C@H](C(=O)N5C[C@H](O)C[C@H]5C(=O)N[C@@H](CO)c5ccc(-n6cncn6)cc5)C(C)C)nn4)cc3)c2n1 (atropisomer, axis not shown; (M)) [Example 13, (1s,3R)-3-(dimethylamino)cyclobutyl 3-({(7M)-6-cyclopropyl-7-(6-fluoro-5-methyl-1H-indazol-4-yl)-8-{[4-(1-{(2S)-1-[(2S,4R)-4-hydroxy-2-({(1R)-2-hydroxy-1-[4-(1H-1,2,4-triazol-1-yl)phenyl]ethyl}carbamoyl)pyrrolidin-1-yl]-3-methyl-1-oxobutan-2-yl}-1H-1,2,3-triazol-4-yl)phenyl]methoxy}-2-[(2S)-2-methoxypropoxy]quinolin-4-yl}oxy)azetidine-1-carboxylate]	57% inhibition	78% inhibition	–
